Source: PubChem BioAssay AID1918993 (Molecular Pharmacology Branch, DTP, NCI, 2023)

Test system: 233499-124-R-J3-PDC complex spheroid growth
Experiment: Anticancer human tumor 233499-124-R-J3-PDC patient-derived colon adenocarcinoma cell line growth inhibition [AhR]
Conditions: for IC50: curve of first compound; for viability, T/C: stronger effect = lower value
Outline: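 Agents were dosed in half-log steps down from roughly clinical Cmax, or from 10 microM where Cmax was unknown, alone and with AhR antagonists. Read-out: percent test/control growth of tumor spheroids containing HUVEC and MSC stromal cells.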

[1] = second compound 0.1 µM, first compound 0.000949 µM
[2] = second compound 0.1 µM, first compound 0.003 µM
[3] = second compound 0.1 µM, first compound 0.00949 µM
[4] = second compound 0.1 µM, first compound 0.03 µM
[5] = second compound 0.1 µM, first compound 0.0949 µM
[6] = second compound 0.1 µM, first compound 0.3 µM
[7] = second compound 0.316 µM, first compound 0.000949 µM
[8] = second compound 0.316 µM, first compound 0.003 µM
[9] = second compound 0.316 µM, first compound 0.00949 µM
[10] = second compound 0.316 µM, first compound 0.03 µM
[11] = second compound 0.316 µM, first compound 0.0949 µM
[12] = second compound 0.316 µM, first compound 0.3 µM
[13] = second compound 1 µM, first compound 0.000949 µM
[14] = second compound 1 µM, first compound 0.003 µM
[15] = second compound 1 µM, first compound 0.00949 µM
[16] = second compound 1 µM, first compound 0.03 µM
[17] = second compound 1 µM, first compound 0.0949 µM
[18] = second compound 1 µM, first compound 0.3 µM
[19] = second compound 3.16 µM, first compound 0.000949 µM
[20] = second compound 3.16 µM, first compound 0.003 µM
[21] = second compound 3.16 µM, first compound 0.00949 µM
[22] = second compound 3.16 µM, first compound 0.03 µM
[23] = second compound 3.16 µM, first compound 0.0949 µM
[24] = second compound 3.16 µM, first compound 0.3 µM
[25] = second compound 10 µM, first compound 0.000949 µM
[26] = second compound 10 µM, first compound 0.003 µM
[27] = second compound 10 µM, first compound 0.00949 µM
[28] = second compound 10 µM, first compound 0.03 µM
[29] = second compound 10 µM, first compound 0.0949 µM
[30] = second compound 10 µM, first compound 0.3 µM
[31] = second compound 0.1 µM, first compound 0.0316 µM
[32] = second compound 0.1 µM, first compound 0.1 µM
[33] = second compound 0.1 µM, first compound 0.316 µM
[34] = second compound 0.1 µM, first compound 1 µM
[35] = second compound 0.1 µM, first compound 3.16 µM
[36] = second compound 0.1 µM, first compound 10 µM
[37] = second compound 0.316 µM, first compound 0.0316 µM
[38] = second compound 0.316 µM, first compound 0.1 µM
[39] = second compound 0.316 µM, first compound 0.316 µM
[40] = second compound 0.316 µM, first compound 1 µM
[41] = second compound 0.316 µM, first compound 3.16 µM
[42] = second compound 0.316 µM, first compound 10 µM
[43] = second compound 1 µM, first compound 0.0316 µM
[44] = second compound 1 µM, first compound 0.1 µM
[45] = second compound 1 µM, first compound 0.316 µM
[46] = second compound 1 µM, first compound 1 µM
[47] = second compound 1 µM, first compound 3.16 µM
[48] = second compound 1 µM, first compound 10 µM
[49] = second compound 3.16 µM, first compound 0.0316 µM
[50] = second compound 3.16 µM, first compound 0.1 µM
[51] = second compound 3.16 µM, first compound 0.316 µM
[52] = second compound 3.16 µM, first compound 1 µM
[53] = second compound 3.16 µM, first compound 3.16 µM
[54] = second compound 3.16 µM, first compound 10 µM
[55] = second compound 10 µM, first compound 0.0316 µM
[56] = second compound 10 µM, first compound 0.1 µM
[57] = second compound 10 µM, first compound 0.316 µM
[58] = second compound 10 µM, first compound 1 µM
[59] = second compound 10 µM, first compound 3.16 µM
[60] = second compound 10 µM, first compound 10 µM
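Note: spheroids exposed to agents for seven days before reading.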

Structure (SMILES): CCc1c2c(nc3ccc(O)cc13)-c1cc3c(c(=O)n1C2)COC(=O)[C@]3(O)CC + Cc1ccccc1N=Nc1ccc(NC(=O)c2ccnn2C)c(C)c1
- IC50 (second compound 0.1 µM): > 300 nM
- IC50 (second compound 0.316 µM): > 300 nM
- IC50 (second compound 1 µM): > 300 nM
- IC50 (second compound 3.16 µM): > 300 nM
- IC50 (second compound 10 µM): > 300 nM
- viability, T/C [1]: 95.3%
- viability, T/C [2]: 103%
- viability, T/C [3]: 102%
- viability, T/C [4]: 81.8%
- viability, T/C [5]: 90.4%
- viability, T/C [6]: 76.6%
- viability, T/C [7]: 87.6%
- viability, T/C [8]: 91.4%
- viability, T/C [9]: 88.5%
- viability, T/C [10]: 75.4%
- viability, T/C [11]: 77.8%
- viability, T/C [12]: 88%
- viability, T/C [13]: 105%
- viability, T/C [14]: 113%
- viability, T/C [15]: 102%
- viability, T/C [16]: 78.3%
- viability, T/C [17]: 84.5%
- viability, T/C [18]: 86.2%
- viability, T/C [19]: 91.5%
- viability, T/C [20]: 105%
- viability, T/C [21]: 86.5%
- viability, T/C [22]: 86.9%
- viability, T/C [23]: 91.8%
- viability, T/C [24]: 73.4%
- viability, T/C [25]: 107%
- viability, T/C [26]: 90.6%
- viability, T/C [27]: 104%
- viability, T/C [28]: 103%
- viability, T/C [29]: 106%
- viability, T/C [30]: 101%

Structure (SMILES): Nc1ncn(C2CC(O)C(CO)S2)c(=O)n1 (stereo not given) + Cc1ccccc1N=Nc1ccc(NC(=O)c2ccnn2C)c(C)c1
- IC50 (second compound 0.1 µM): > 300 nM
- IC50 (second compound 0.316 µM): > 300 nM
- IC50 (second compound 1 µM): > 300 nM
- IC50 (second compound 3.16 µM): > 300 nM
- IC50 (second compound 10 µM): > 300 nM
- viability, T/C [1]: 91.9%
- viability, T/C [2]: 103%
- viability, T/C [3]: 87.7%
- viability, T/C [4]: 108%
- viability, T/C [5]: 109%
- viability, T/C [6]: 111%
- viability, T/C [7]: 99.1%
- viability, T/C [8]: 114%
- viability, T/C [9]: 96.3%
- viability, T/C [10]: 107%
- viability, T/C [11]: 105%
- viability, T/C [12]: 84.7%
- viability, T/C [13]: 110%
- viability, T/C [14]: 114%
- viability, T/C [15]: 95%
- viability, T/C [16]: 114%
- viability, T/C [17]: 116%
- viability, T/C [18]: 101%
- viability, T/C [19]: 101%
- viability, T/C [20]: 108%
- viability, T/C [21]: 107%
- viability, T/C [22]: 107%
- viability, T/C [23]: 109%
- viability, T/C [24]: 107%
- viability, T/C [25]: 104%
- viability, T/C [26]: 99.3%
- viability, T/C [27]: 107%
- viability, T/C [28]: 113%
- viability, T/C [29]: 94.8%
- viability, T/C [30]: 99.3%

Structure (SMILES): COc1cccc2c1C(=O)c1c(O)c3c(c(O)c1C2=O)CC(O)(C(=O)CO)CC3OC1CC(N)C(O)C(C)O1 (stereo not given) + CC(CO)NC(=O)c1cc(-c2ccc(Cl)cc2)nn(-c2cnn(C)c2)c1=O
- IC50 (second compound 0.1 µM): 4490 nM
- IC50 (second compound 0.316 µM): 5320 nM
- IC50 (second compound 1 µM): 3760 nM
- IC50 (second compound 3.16 µM): 3430 nM
- IC50 (second compound 10 µM): 1620 nM
- viability, T/C [31]: 103%
- viability, T/C [32]: 104%
- viability, T/C [33]: 87.8%
- viability, T/C [34]: 78.3%
- viability, T/C [35]: 58.3%
- viability, T/C [36]: 31.8%
- viability, T/C [37]: 98.3%
- viability, T/C [38]: 100%
- viability, T/C [39]: 90.4%
- viability, T/C [40]: 81.6%
- viability, T/C [41]: 65.1%
- viability, T/C [42]: 32.5%
- viability, T/C [43]: 96.7%
- viability, T/C [44]: 111%
- viability, T/C [45]: 98.4%
- viability, T/C [46]: 70.7%
- viability, T/C [47]: 58.9%
- viability, T/C [48]: 27.1%
- viability, T/C [49]: 85.6%
- viability, T/C [50]: 99.2%
- viability, T/C [51]: 88.7%
- viability, T/C [52]: 57.6%
- viability, T/C [53]: 59.3%
- viability, T/C [54]: 27%
- viability, T/C [55]: 90.5%
- viability, T/C [56]: 76.1%
- viability, T/C [57]: 72.8%
- viability, T/C [58]: 58%
- viability, T/C [59]: 40.3%
- viability, T/C [60]: 6.01%

Structure (SMILES): Nc1ccn(C2OC(CO)C(O)C2(F)F)c(=O)n1 (stereo not given) + Cc1cncc(-c2nc(NCCc3c[nH]c4ccccc34)c3ncn(C(C)C)c3n2)c1
- IC50 (second compound 0.1 µM): 1780 nM
- IC50 (second compound 0.316 µM): 768 nM
- IC50 (second compound 1 µM): > 10000 nM
- IC50 (second compound 3.16 µM): 2970 nM
- IC50 (second compound 10 µM): > 10000 nM
- viability, T/C [31]: 95.4%
- viability, T/C [32]: 72%
- viability, T/C [33]: 71.8%
- viability, T/C [34]: 50.5%
- viability, T/C [35]: 41.4%
- viability, T/C [36]: 47.2%
- viability, T/C [37]: 76.5%
- viability, T/C [38]: 82.7%
- viability, T/C [39]: 68%
- viability, T/C [40]: 45.4%
- viability, T/C [41]: 40.1%
- viability, T/C [42]: 45.9%
- viability, T/C [43]: 84.8%
- viability, T/C [44]: 81.7%
- viability, T/C [45]: 64%
- viability, T/C [46]: 57.6%
- viability, T/C [47]: 43.9%
- viability, T/C [48]: 61.9%
- viability, T/C [49]: 74.5%
- viability, T/C [50]: 75.2%
- viability, T/C [51]: 69.2%
- viability, T/C [52]: 60.1%
- viability, T/C [53]: 38.6%
- viability, T/C [54]: 60.2%
- viability, T/C [55]: 52.6%
- viability, T/C [56]: 44.9%
- viability, T/C [57]: 56%
- viability, T/C [58]: 47.3%
- viability, T/C [59]: 53%
- viability, T/C [60]: 51.9%

Structure (SMILES): Nc1ncn(C2CC(O)C(CO)O2)c(=O)n1 (stereo not given) + Cc1cncc(-c2nc(NCCc3c[nH]c4ccccc34)c3ncn(C(C)C)c3n2)c1
- IC50 (second compound 0.1 µM): > 1000 nM
- IC50 (second compound 0.316 µM): > 1000 nM
- IC50 (second compound 1 µM): > 1000 nM
- IC50 (second compound 3.16 µM): > 1000 nM
- IC50 (second compound 10 µM): < 3.16 nM
- viability, T/C (second compound 0.1 µM, first compound 0.00316 µM): 97.4%
- viability, T/C (second compound 0.1 µM, first compound 0.01 µM): 85%
- viability, T/C [31]: 91.3%
- viability, T/C [32]: 88%
- viability, T/C [33]: 87.8%
- viability, T/C [34]: 81.2%
- viability, T/C (second compound 0.316 µM, first compound 0.00316 µM): 88.8%
- viability, T/C (second compound 0.316 µM, first compound 0.01 µM): 89.8%
- viability, T/C [37]: 84.6%
- viability, T/C [38]: 84%
- viability, T/C [39]: 87.4%
- viability, T/C [40]: 96.9%
- viability, T/C (second compound 1 µM, first compound 0.00316 µM): 82.9%
- viability, T/C (second compound 1 µM, first compound 0.01 µM): 83.9%
- viability, T/C [43]: 86.8%
- viability, T/C [44]: 81%
- viability, T/C [45]: 82.9%
- viability, T/C [46]: 93.4%
- viability, T/C (second compound 3.16 µM, first compound 0.00316 µM): 82.7%
- viability, T/C (second compound 3.16 µM, first compound 0.01 µM): 76.2%
- viability, T/C [49]: 82.4%
- viability, T/C [50]: 81%
- viability, T/C [51]: 76.5%
- viability, T/C [52]: 88.6%
- viability, T/C (second compound 10 µM, first compound 0.00316 µM): 16.3%
- viability, T/C (second compound 10 µM, first compound 0.01 µM): 26.8%
- viability, T/C [55]: 36.8%
- viability, T/C [56]: 44.8%
- viability, T/C [57]: 21.5%
- viability, T/C [58]: 26.4%
